The target of the experiment is T1, Smc1/Smc3 heterodimer with Scc1-C (cohesin) (Saccharomyces cerevisiae, UniProt P32908+P47037, P32908:L1129V, form not given).
T1 construct: N-terminal tags; Sf9 insect cells; fluorescently labelled for MST; with Sister chromatid cohesion protein 1
T1 sequence (P32908 1-1225 L1129V): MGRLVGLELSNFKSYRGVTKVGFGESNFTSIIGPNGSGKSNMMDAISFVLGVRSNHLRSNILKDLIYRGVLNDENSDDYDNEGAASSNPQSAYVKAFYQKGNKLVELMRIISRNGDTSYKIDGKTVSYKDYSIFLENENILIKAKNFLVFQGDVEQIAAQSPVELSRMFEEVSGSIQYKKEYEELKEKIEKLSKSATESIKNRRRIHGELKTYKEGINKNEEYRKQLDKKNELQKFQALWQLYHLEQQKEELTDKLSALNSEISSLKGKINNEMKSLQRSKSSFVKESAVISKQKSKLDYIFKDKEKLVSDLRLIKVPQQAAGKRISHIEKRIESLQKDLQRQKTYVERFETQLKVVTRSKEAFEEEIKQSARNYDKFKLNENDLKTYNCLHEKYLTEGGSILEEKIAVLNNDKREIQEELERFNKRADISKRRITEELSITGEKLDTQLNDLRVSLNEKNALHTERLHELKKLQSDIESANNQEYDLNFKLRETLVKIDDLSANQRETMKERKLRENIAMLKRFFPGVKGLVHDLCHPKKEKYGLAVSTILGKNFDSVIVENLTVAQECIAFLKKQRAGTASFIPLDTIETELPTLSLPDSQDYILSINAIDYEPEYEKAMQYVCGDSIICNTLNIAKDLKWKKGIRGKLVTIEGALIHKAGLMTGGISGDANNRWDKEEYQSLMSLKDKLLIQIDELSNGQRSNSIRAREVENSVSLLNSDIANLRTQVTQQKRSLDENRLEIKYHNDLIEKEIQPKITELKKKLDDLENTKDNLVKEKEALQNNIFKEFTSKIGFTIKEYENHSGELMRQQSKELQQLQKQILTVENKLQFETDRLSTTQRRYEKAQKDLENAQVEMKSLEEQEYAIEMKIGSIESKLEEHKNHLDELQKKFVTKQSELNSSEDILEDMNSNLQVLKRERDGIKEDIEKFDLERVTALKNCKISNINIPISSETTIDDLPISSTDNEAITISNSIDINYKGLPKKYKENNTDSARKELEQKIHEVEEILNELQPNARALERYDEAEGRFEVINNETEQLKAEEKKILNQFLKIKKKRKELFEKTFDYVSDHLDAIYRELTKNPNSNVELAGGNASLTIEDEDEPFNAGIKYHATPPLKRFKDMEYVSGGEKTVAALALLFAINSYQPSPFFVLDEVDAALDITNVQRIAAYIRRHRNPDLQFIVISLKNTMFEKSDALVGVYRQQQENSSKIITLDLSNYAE
T1 sequence (P47037 1-1230): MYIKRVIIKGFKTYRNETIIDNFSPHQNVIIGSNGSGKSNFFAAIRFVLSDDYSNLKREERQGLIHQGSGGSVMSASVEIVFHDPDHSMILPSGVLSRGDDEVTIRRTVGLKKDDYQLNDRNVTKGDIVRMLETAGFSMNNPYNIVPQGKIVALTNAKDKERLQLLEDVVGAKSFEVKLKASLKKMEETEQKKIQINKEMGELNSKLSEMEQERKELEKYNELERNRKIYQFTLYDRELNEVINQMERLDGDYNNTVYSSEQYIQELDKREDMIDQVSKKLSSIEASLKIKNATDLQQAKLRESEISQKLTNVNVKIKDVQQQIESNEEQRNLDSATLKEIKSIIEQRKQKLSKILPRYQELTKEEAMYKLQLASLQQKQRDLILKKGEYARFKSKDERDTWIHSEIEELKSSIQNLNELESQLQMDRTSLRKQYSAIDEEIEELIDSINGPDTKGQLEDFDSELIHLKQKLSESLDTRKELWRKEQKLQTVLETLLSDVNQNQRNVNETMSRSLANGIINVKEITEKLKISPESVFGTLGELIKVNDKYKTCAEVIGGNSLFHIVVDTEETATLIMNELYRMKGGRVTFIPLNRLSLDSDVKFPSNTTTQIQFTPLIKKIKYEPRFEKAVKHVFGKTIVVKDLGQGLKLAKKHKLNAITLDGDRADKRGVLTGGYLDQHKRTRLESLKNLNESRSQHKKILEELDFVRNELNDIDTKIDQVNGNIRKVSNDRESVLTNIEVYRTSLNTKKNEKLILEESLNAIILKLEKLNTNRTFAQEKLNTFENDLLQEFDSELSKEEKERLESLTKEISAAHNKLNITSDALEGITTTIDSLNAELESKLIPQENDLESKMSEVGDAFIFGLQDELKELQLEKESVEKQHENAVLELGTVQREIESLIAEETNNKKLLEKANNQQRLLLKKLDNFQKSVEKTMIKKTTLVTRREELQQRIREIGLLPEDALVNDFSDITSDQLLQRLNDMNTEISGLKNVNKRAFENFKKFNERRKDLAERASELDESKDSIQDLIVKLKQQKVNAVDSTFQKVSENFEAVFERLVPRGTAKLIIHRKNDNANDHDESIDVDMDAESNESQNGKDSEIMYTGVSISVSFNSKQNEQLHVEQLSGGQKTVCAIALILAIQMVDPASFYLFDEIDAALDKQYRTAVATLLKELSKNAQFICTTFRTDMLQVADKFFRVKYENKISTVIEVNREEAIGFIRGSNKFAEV
T1 sequence (Q12158 1-566 partner): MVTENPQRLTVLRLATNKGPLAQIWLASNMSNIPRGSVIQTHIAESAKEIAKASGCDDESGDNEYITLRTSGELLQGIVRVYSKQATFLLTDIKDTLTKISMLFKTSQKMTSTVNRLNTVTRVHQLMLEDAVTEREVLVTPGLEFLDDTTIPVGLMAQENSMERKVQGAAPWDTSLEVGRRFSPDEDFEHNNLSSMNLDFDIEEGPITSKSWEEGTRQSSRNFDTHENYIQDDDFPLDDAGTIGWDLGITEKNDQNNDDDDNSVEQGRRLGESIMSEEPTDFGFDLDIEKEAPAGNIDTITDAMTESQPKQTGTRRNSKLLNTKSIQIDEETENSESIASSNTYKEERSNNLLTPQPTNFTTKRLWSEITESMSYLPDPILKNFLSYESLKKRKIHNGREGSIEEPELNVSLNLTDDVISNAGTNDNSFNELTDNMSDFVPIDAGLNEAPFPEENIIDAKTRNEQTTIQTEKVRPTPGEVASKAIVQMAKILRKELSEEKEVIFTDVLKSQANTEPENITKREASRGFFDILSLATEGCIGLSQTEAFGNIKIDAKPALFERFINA
In words: microscale thermophoresis. It is filed as binding. As to conditions: fluorescently labelled protein; Smc1 co-purified with Scc1-C, plus Smc3; read-out: affinity. From the text:
microscale thermophoresis on Smc1/Smc3 heterodimer with Scc1-C (cohesin) | Smc1 L1129V, D1164E and E1158Q mutants all had wild-type-like affinity to both ATP and ADP | wild-type and mutant cohesin complexes appear to have similar affinities to ADP

Some results are limits rather than exact numbers.

For `Nc1ncnc2c1ncn2[C@@H]1O[C@H](COP(=O)(O)OP(=O)(O)O)[C@@H](O)[C@H]1O` [ADP], the Kd is more than 1000 µM.

`Nc1ncnc2c1ncn2[C@@H]1O[C@H](COP(=O)(O)OP(=O)(O)OP(=O)(O)O)[C@@H](O)[C@H]1O` [ATP]: the Kd was 667 ± 211 µM.
